Reference: US20200316100A1, “HALOALKYL FUCOSE-CONTAINING SELECTIN ANTAGONISTS” (GlycoMimetics, Inc., priority 2016, published 2020)

Biological target: T1, E-selectin/Ig chimera (Homo sapiens, UniProt P16581)
T1 sequence (P16581 22-556): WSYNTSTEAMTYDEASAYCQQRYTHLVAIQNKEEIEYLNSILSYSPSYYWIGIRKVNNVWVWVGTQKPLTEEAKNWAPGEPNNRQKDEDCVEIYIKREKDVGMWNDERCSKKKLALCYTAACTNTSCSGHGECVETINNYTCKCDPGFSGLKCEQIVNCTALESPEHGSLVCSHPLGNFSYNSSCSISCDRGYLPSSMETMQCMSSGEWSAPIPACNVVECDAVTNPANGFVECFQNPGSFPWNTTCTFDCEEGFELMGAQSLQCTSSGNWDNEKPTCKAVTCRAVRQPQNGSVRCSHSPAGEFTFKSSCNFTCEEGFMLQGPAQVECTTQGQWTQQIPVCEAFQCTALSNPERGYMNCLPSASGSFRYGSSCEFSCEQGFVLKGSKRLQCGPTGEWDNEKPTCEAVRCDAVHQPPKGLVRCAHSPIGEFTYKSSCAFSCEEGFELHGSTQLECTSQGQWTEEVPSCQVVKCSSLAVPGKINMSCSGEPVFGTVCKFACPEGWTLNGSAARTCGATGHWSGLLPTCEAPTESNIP
Test: E-Selectin Activity - Alternative Binding Assay (inhibition of sLea binding to immobilized E-selectin/Ig chimera)
Details: concentration required to inhibit binding of biotinylated sLea polyacrylamide/streptavidin-HRP conjugate to immobilized E-selectin by 50%; absorbance 450 nm
Experimental: E-selectin/Ig chimera was immobilized in 96 well microtiter plates by incubation at 37° C. for 2 hours. To reduce nonspecific binding, bovine serum albumin was added to each well and incubated at room temperature for 2 hours. The plate was washed and serial dilutions of the test compounds were added to the wells in the presence of conjugates of biotinylated, sLe^a polyacrylamide with streptavidin/horseradish peroxidase and incubated for 2 hours at room temperature.
To determine the amount of sLe^a hound to immobilized E-selectin after washing, the peroxidase substrate, 3,3′,5,5′ tetrametbylbenzidine (TMB) was added. After 3 minutes, the enzyme reaction was stopped by the addition of H3PO4, and the absorbance of light at a wavelength of 450 nm was determined.

Work on `CCC1CCCC(OC2OC(CO)C(O)C(OC(CC3CCCCC3)C(=O)O)C2OC(=O)c2ccccc2)C1OC1OC(C(F)(F)F)C(O)C(O)C1O` [Compound 75, sodium (5)-2-(((2R,3R,4S,5S,6R)-3-(benzoyloxy)-2-(((1R,2R,3S)-3-ethyl-2-(((2R,3S,4R,5S,6R)-3,4,5-trihydroxy-6-(trifluoromethyl)tetrahydro-2H-pyran-2-yl)oxy)cyclohexypoxy)-5-hydroxy-6-(hydroxymethyl)tetrahydro-2H-pyran-4-yl)oxy)-3-cyclohexylpropanoate] yielded an IC50 of 700 nM.
